US12331042B2, “Compounds suitable for the treatment and prophylaxis of muscle wasting and other conditions” (priority 2019, dated 2025)
Entries after “also recorded” stand apart in the source; their conditions may differ.

Columns and labels:
[1] = test system: C57BL/6N mice inoculated with B16F10 melanoma cells; assay: Tumor mouse model (B16F10 melanoma); format: in vivo; conditions: 0.1 weight-% in chow, vs tumor mice
Description: 8 weeks old female C57BL/6N mice were inoculated with B16F10 melanoma cells (9×10^5 cells) or saline (sham, n=10). Within the first 3 days after tumor inoculation, the B16F10 mice as well as the sham mice received regular chow. Then the B16F10 mice were randomly divided in three groups, where the first group received MyoMed-946 chow (Tumor+MyoMed-946, n=10), the second group received MyoMed-205 chow (Tumor+MyoMed-205, n=10) and the third group received an identical chow but without the addition of the selected compounds (Tumor, n=10). The compound concentration in the chow was 0.1 weight-%, resulting in a daily compound intake per mouse of about 3 mg. Also the sham group was fed with an identical chow but without the addition of the selected compound. Wire-hang tests (muscle function) were performed with each mouse 9, 16 and 23 days after tumor inoculation. For this purpose, a standard wire hang construction was used with a wire (length: of 40 cm, diameter: 2.5 mm) at a height of 70 cm above the floor. Under the center of the wire a large box with sawdust was placed. For testing, the mouse was hung to the wire with the two limbs and hang time was recorded. Each animal had three attempts for 180 sec. max each. After three attempts, the maximal holding impulse was calculated (hanging time×body weight).
Mice were sacrificed 25 days after tumor inoculation. […]

[2] = Storage stability at room temperature (NMR, LC-MS); format: physicochemical; conditions: several months storage at room temperature; confirmed via NMR and LC-MS
Description: [2-(2-Furylmethylcarbamoylamino)-2-oxo-ethyl]

[3] = test system: Murine C2C12 myoblasts; assay: Cytotoxicity, LDH release in cultured myoblasts; format: cell-based; conditions: increasing concentrations, 24 h
Method: Murine C2C12 myoblasts (CRL-1772, ATCC) were cultured in DMEM (Lonza; Basel, Switzerland) supplemented with 10% fetal calf serum (FCS; Gibco®Invitrogen, Carlsbad, CA). For induction of differentiation into myotubes, subconfluent cultures were switched to DMEM containing 2% horse serum (Sigma-Aldrich; Seelze, Germany). Myotubes were subsequently pre-treated for 2 h with increasing compound concentrations (0.1 to 10 μmol/L, dissolved in DMSO) or with an equal volume of DMSO before treatment for 24 h with 10 μmol/L dexamethasone (DEX; Sigma-Aldrich; Seelze, Germany). Myotube diameter was then evaluated by image analysis software (Analysis 3.0, Olympus Soft Imaging Solutions GmbH, Munster, Germany). To determine cytotoxicity of selected compounds, myoblasts or myotubes were incubated with increasing concentrations for 24 h. Subsequently, the concentration of lactate dehydrogenase (LDH) activity was quantified in the cell culture supernatant as a measure for cell destruction as described in Bellocci et al., Anal Biochem, 2008, 374, 48-55.

[4] = test system: monocrotaline (MCT)-treated C57BL/6 mice; assay: Pulmonary hypertension mouse model, test series 1; format: in vivo; conditions: MCT+compound chow vs MCT
Method: The animal experiments were approved by the Regierungspräsidium Karlsruhe (35-9185.81/G-141/13) and the Regierungspräsidium Leipzig (TVV 40/16). Three groups of mice were included in this study, including: 1) saline-treated (sham; n=20); 2) monocrotaline (MCT)-treated fed normal chow (MCT; n=27); and 3) MCT-treated fed MuRF1 inhibitor chow (MCT+compound; n=27). Briefly, C57BL/6 mice (aged 8 weeks) were subcutaneously injected weekly with either MCT (600 mg/kg) or a matched volume of saline for 6 weeks, a time period where MCT is known to induce cardiac cachexia due to pulmonary hypertension and subsequent RV dysfunction rather than anorexia, as described by Ahn et al., PLoS One, 2013, 8:e62702. Mice were exposed to identical conditions under a 12:12 h light/dark cycle with food and water provided ad libitum. The MCT+compound group started receiving the inhibitor chow 1 week prior to the MCT injections, whereas the sham and MCT groups were fed an identical chow but without the addition of the selected compound. Body weight was recorded every week for each mouse. […]
For histological evaluation, paraffin-embedded TA muscle sections (3 μm) were stained with H&E and fiber cross-sectional area (CSA) and then evaluated by imaging software (Analysis 3.0, Olympus Soft Imaging Solutions GmbH, Munster, Germany). […]

[5] = test system: porin, telethonin, MRPS-5, MuRF1, MuRF2, Tom20 expression; assay: Western blot analysis of diaphragm, CHF mice; format: in vivo
Method: For western blot analyses, frozen diaphragm was homogenized in relaxing buffer (90 mmol/L HEPES, 126 mmol/L potassium chloride, 36 mmol/L sodium chloride, 1 mmol/L magnesium chloride, 50 mmol/L EGTA, 8 mmol/L ATP, and 10 mmol/L creatine phosphate, pH 7.4) containing a protease inhibitor mix (Inhibitor Mix M, Serva, Heidelberg, Germany) and sonicated. Protein concentration of the supernatant was determined (bicinchoninic acid assay, Pierce, Bonn, Germany), and aliquots (5-20 μg) were separated by sodium dodecyl sulfate-polyacrylamide gel electrophoresis. Proteins were transferred to a polyvinylidene fluoride membrane and incubated overnight at 4° C. using the following primary antibodies: porin and telethonin (both 1/1000, Abcam, Cambridge, UK), MRPS-5 ( 1/500, Thermo Fisher, Rockford, IL, USA), MuRF1 and MuRF2 (both 1/1000; commercially available from Myomedix, Neckargemünd, Germany), and Tom20 (1:200, Santa Cruz Biotechnologies, Heidelberg, Germany). Membranes were subsequently incubated with a horseradish peroxidase conjugated secondary antibody, specific bands were visualized by enzymatic chemiluminescence (Super Signal West Pico, Thermo Fisher Scientific Inc., Bonn, Germany), and densitometry was quantified using a one-dimensional scan software package (Scanalytics Inc., Rockville, MD, USA). Measurements were normalized to the loading control GAPDH ( 1/30000; HyTest Ltd, Turku, Finland) or α-tubulin (1:1000, Santa Cruz Biotechnologies). All data are presented as fold change relative to sham.

For `Cc1cc(=O)oc2cc(OCc3ccc(C(=O)OCC(=O)NC(=O)NCc4ccco4)cc3)ccc12` [MyoMed-946, [2-(2-furylmethylcarbamoylamino)-2-oxo-ethyl] 4-[(4-methyl-2-oxo-chromen-7-yl)oxymethyl]benzoate], the “tumor induced skeletal muscle atrophy (TA muscle weight)” value ([1]; 25 days after inoculation, at least to certain extent) was “attenuated”, the “loss of muscle function in wire-hang test” value ([1]; 9, 16 and 23 days after inoculation) was “attenuated; also recorded: significantly attenuates the loss of muscle function” and the decay on storage [2] was “no trace of decay”. For the same compound, the “toxicity (LDH release)” value [3] was “low toxicity”, the right ventricle hypertrophy ([4]; 6 weeks MCT) was “attenuated; also recorded: attenuates the development of right ventricle hypertrophy” and the “loss of skeletal muscle mass (EDL, soleus, TA wet weight, TA fiber CSA)” value ([4]; most obvious effect in TA muscle) was “protected”. The TOM-20 expression ([5]; CHF+compound) was “attenuated; also recorded: modest, but statistically significant, improvement”, the mitochondrial porin expression ([5]; CHF+compound) was “attenuated; also recorded: near-normal” and the “reduction of Mrps5 expression (Western blot)” value ([5]; CHF+compound vs CHF) was “reversed”. For the same compound, the “up-regulation of MuRF1 expression” value ([5]; CHF+compound vs CHF) was “attenuated; also recorded: prevented”, the “up-regulation of MuRF2 expression” value ([5]; CHF+compound vs CHF) was “attenuated; also recorded: prevented” and the “reduced expression of telethonin” value ([5]; trend (P=0.08) in CHF group) was “attenuated; also recorded: not evident”.
